# In patent publication US20200069691A1, “HETEROCYCLIC COMPOUNDS AS HIV PROTEASE INHIBITORS” (Merck Sharp & Dohme Corp., priority 2016, published 2020):
# Molecular target: T1, wild-type HIV-1 protease (Human immunodeficiency virus type 1 group M subtype B, UniProt P04585)
# T1 construct: Escherichia coli expressed wild-type HIV-1 protease protein
# Experiment: Assay for Inhibition of Microbial Expressed HIV Protease (peptide substrate cleavage, LC-MS/MS readout)
# Type: biochemical
# Conditions: E. coli expressed wild-type HIV-1 protease, mean of at least two independent experiments, read-out: HIV Pr Enzyme HIV1 PR IC50
# Summary of the method: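 E. coli-expressed wild-type HIV-1 protease ([…]) was preincubated with inhibitor 30 min at room temperature in pH 5.5 acetate buffer (100 mM NaCl, 0.1% BSA). Then 400 μM octapeptide substrate was added and reacted 1 h at 30 °C; inhibition came from LC-MS/MS product peak areas, mean of ≥2 experiments.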
row,Compound,IC50 [nM]
1,"N=C1N[C@](CCC2CC2)(c2ccc(F)cc2)C(=O)N1[C@@H]1CCCCc2ccc(C(=O)N3Cc4nccnc4C3)cc21 [Compound 93, (5R)-5-(2-cyclopropylethyl)-3-[(5R)-3-(5,7-dihydro-6H-pyrrolo-[3,4-b]pyrazin-6-ylcarbonyl)-6,7,8,9-tetrahydro-5H-benzo-[7]annulen-5-yl]-5-(4-fluoro-phenyl)-2-iminoimidazolidin-4-one]",18.5
2,"N=C1N[C@](CCC2CC2)(c2ccc(F)cc2)C(=O)N1C(CN1CCCC1=O)c1ccc(C(F)(F)F)c(C(=O)N2Cc3nccnc3C2)c1 (stereo partly drawn) [Compound 7, (5R)-5-(2-cyclopropylethyl)-3-{1-[3-(5,7-dihydro-6H-pyrrolo[3,4-b]pyrazin-6-ylcarbonyl)-4-(trifluoromethyl)phenyl]-2-(2-oxopyrrolidin-1-yl)ethyl}-5-(4-fluorophenyl)-2-iminoimidazolidin-4-one]",0.39
3,"N#Cc1ncc2c(n1)CN(C(=O)c1cc(CN3C(=N)NC(c4ccc(F)cc4)(c4ccc(F)cc4)C3=O)ccc1Cl)C2 [Compound 363, 6-[(5-{[4,4-bis(4-fluorophenyl)-2-imino-5-oxoimidazolidin-1-yl]methyl}-2-chlorophenyl)carbonyl]-6,7-dihydro-5H-pyrrolo[3,4-d]pyrimidine-2-carbonitrile]",1.66
4,"N=C1NC(c2ccccc2)(c2ccccc2)C(=O)N1Cc1cccc(C(=O)N2CCc3ccccc32)c1 [Compound 312, 3-[3-(2,3-dihydro-1H-indol-1-ylcarbonyl)benzyl]-2-imino-5,5-diphenylimidazolidin-4-one]",52.1
5,"COC(=O)N1CCN(C(=O)c2cccc([C@@H](C)N3C(=N)N[C@](CCC(C)C)(c4ccccc4)C3=O)c2)CC1 [Compound 221, methyl 4-[(3-{(1R)-1-[2-imino-4-(3-methylbutyl)-5-oxo-4-phenyl-imidazolidin-1-yl]ethyl}phenyl)-carbonyl]piperazine-1-carboxylate]",11.1
6,"CC(C)CCC1(c2ccccc2)NC(=N)N(Cc2cccc(C(=O)N3CCN(c4ncccn4)CC3)c2)C1=O (stereo not shown) [Compound 244, 2-imino-5-(3-methylbutyl)-5-phenyl-3-{3-[(4-pyrimidin-2-ylpiperazin-1-yl)carbonyl]benzyl} imidazolidin-4-one]",16.8
7,"N=C1NC(c2ccccc2)(c2ccc(-c3ccccc3)cc2)C(=O)N1Cc1cccc(C(=O)N2Cc3nccnc3C2)c1 (stereo not shown) [Compound 192, 5-biphenyl-4-yl-3-[3-(5,7-dihydro-6H-pyrrolo[3,4-b]pyrazin-6-ylcarbonyl)benzyl]-2-imino-5-phenylimidazolidin-4-one]",44.2
8,"CC1(C)CCN(C(=O)c2cc(CN3C(=N)NC(c4ccc(F)cc4)(c4ccc(F)cc4)C3=O)ccc2C(F)(F)F)C1 [Compound 181, 3-{3-[(3,3-dimethylpyrrolidin-1-yl)carbonyl]-4-(trifluoromethyl)benzyl}-5,5-bis(4-fluorophenyl)-2-iminoimidazolidin-4-one]",89.8
9,"COC(=O)N1CCN(C(=O)c2ccnc(CN3C(=N)NC(c4ccc(F)cc4)(c4ccc(F)cc4)C3=O)c2)CC1 [Compound 404, methyl 4-[(2-{[4,4-bis(4-fluorophenyl)-2-imino-5-oxoimidazolidin-1-yl]methyl}pyridin-4-yl)carbonyl]piperazine-1-carboxylate]",58.6
10,"CC(C)CC[C@]1(c2ccccc2)NC(=N)N([C@@H]2CCCc3ccc(C(=O)N4Cc5nccnc5C4)cc32)C1=O [Compound 124, (5R)-3-[(1R)-7-(5,7-dihydro-6H-pyrrolo[3,4-b]pyrazin-6-ylcarbonyl)-1,2,3,4-tetrahydro-naphthalen-1-yl]-2-imino-5-(3-methylbutyl)-5-phenylimidazolidin-4-one]",57
11,"CC(C)CCC1(c2ccc(F)cc2)NC(=N)N(Cc2ccc(C(F)(F)F)c(C(=O)N3Cc4cncnc4C3)c2)C1=O (stereo not shown) [Compound 167, 3-[3-(5,7-dihydro-6H-pyrrolo[3,4-d]pyrimidin-6-ylcarbonyl)-4-(trifluoromethyl)benzyl]-5-(4-fluorophenyl)-2-imino-5-(3-methylbutyl)imidazolidin-4-one]",36.9
12,"N=C1NC(c2ccccc2)(c2ccccc2)C(=O)N1Cc1cccc(C(=O)N2CCc3cc(C(F)(F)F)ccc3C2)c1 [Compound 336, 2-imino-5,5-diphenyl-3-(3-{[6-(trifluoromethyl)-3,4-dihydroisoquinolin-2(1H)-yl]carbonyl}benzyl) imidazolidin-4-one]",71
13,"COC(=O)Nc1ncc2c(n1)CN(C(=O)c1cccc(CN3C(=N)NC(c4ccc(F)cc4)(c4ccc(F)cc4)C3=O)c1)C2 [Compound 189, methyl {6-[(3-{[4,4-bis(4-fluorophenyl)-2-imino-5-oxoimidazolidin-1-yl]methyl}phenyl)carbonyl]-6,7-dihydro-5H-pyrrolo[3,4-d]pyrimidin-2-yl}carbamate]",3.83
14,"CC(C)CC1(c2ccccc2)NC(=N)N(Cc2ccc(C(F)(F)F)c(C(=O)N3Cc4cnc(C#N)nc4C3)c2)C1=O (stereo not shown) [Compound 140, 6-{[5-{[2-imino-4-(2-methylpropyl)-5-oxo-4-phenylimidazolidin-1-yl]methyl}-2-(trifluoromethyl)phenyl]carbonyl}-6,7-dihydro-5H-pyrrolo[3,4-d]pyrimidine-2-carbonitrile]",2.93
15,"N=C1NC(c2ccccc2)(c2ccccc2)C(=O)N1Cc1ccc(Cl)c(C(=O)N2Cc3nccnc3C2)c1 [Compound 362, 3-[4-chloro-3-(5,7-dihydro-6H-pyrrolo[3,4-b]pyrazin-6-ylcarbonyl)benzyl]-2-imino-5,5-diphenylimidazolidin-4-one]",1.34
16,"N=C1N[C@](CCCC(F)(F)F)(c2ccc(F)cc2)C(=O)N1Cc1ccc(C(F)(F)F)c(C(=O)N2Cc3cnc(-c4cnn(-c5cccc(Cl)c5)c4)nc3C2)c1 [Compound 133, (5R)-3-[3-({2-[1-(3-chlorophenyl)-1H-pyrazol-4-yl]-5,7-dihydro-6H-pyrrolo[3,4-d]pyrimidin-6-yl}carbonyl)-4-(trifluoromethyl)-benzyl]-5-(4-fluorophenyl)-2-imino-5-(4,4,4-trifluorobutyl)imidazolidin-4-one]",86.8
17,"CC(C)CC1(c2ccccc2)NC(=N)N(Cc2ccc(C(F)(F)F)c(C(=O)N3CCN(C)C(=O)C3)c2)C1=O (stereo not shown) [Compound 156, 4-{[5-{[2-imino-4-(2-methylpropyl)-5-oxo-4-phenylimidazolidin-1-yl]methyl}-2-(trifluoromethyl)phenyl]carbonyl}-1-methylpiperazin-2-one]",13.5
18,"C[C@H](c1cccc(C(=O)N2Cc3cnn(C)c3C2)c1)N1C(=N)NC(c2ccc(F)cc2)(c2ccc(F)cc2)C1=O [Compound 202, 5,5-bis(4-fluorophenyl)-2-imino-3-[(1R)-1-{3-[(1-methyl-4,6-dihydropyrrolo [3,4-c]pyrazol-5(1H)-yl)carbonyl]phenyl}-ethyl]imidazolidin-4-one]",6.54
19,"CC(C)CCC(c1ccc(C(F)(F)F)c(C(=O)N2CCn3c(nnc3C(F)(F)F)C2)c1)N1C(=N)N[C@](CCC(C)C)(c2ccccc2)C1=O (stereo partly drawn) [Compound 23, (5R)-2-imino-5-(3-methylbutyl)-3-{4-methyl-1-[4-(trifluoromethyl)-3-{[3-(trifluoromethyl)-5,6-dihydro[1,2,4]triazolo[4,3-a]pyrazin-7(8H)-yl]carbonyl}phenyl]pentyl}-5-phenylimidazolidin-4-one]",2.38
20,"N=C1NC(c2ccccc2)(c2ccccc2)C(=O)N1Cc1cc(F)cc(C(=O)N2Cc3ccccc3C2)c1 [Compound 296, 3-[3-(1,3-dihydro-2H-isoindol-2-ylcarbonyl)-5-fluorobenzyl]-2-imino-5,5-diphenylimidazolidin-4-one]",40.3
21,"CC(C)CC1(c2cccc(F)c2)NC(=N)N(Cc2cccc(C(=O)N3Cc4nccnc4C3)c2)C1=O (stereo not shown) [Compound 210, 3-[3-(5,7-dihydro-6H-pyrrolo[3,4-b]pyrazin-6-ylcarbonyl)benzyl]-5-(3-fluorophenyl)-2-imino-5-(2-methylpropyl)imidazolidin-4-one]",9.12
22,"CN(C)S(=O)(=O)c1cccc(-c2ncc3c(n2)CN(C(=O)c2cc(CN4C(=N)N[C@](CCCC(F)(F)F)(c5ccc(F)cc5)C4=O)ccc2C(F)(F)F)C3)c1 [Compound 66, 3-(6-{[5-{[(4R)-4-(4-fluorophenyl)-2-imino-5-oxo-4-(4,4,4-trifluorobutyl)imidazolidin-1-yl]methyl}-2-(trifluoromethyl)-phenyl]carbonyl}-6,7-dihydro-5H-pyrrolo[3,4-d]pyrimidin-2-yl)-N,N-dimethylbenzene-sulfonamide]",7.73
23,"N=C1NC(c2ccccc2)(c2ccccc2)C(=O)N1Cc1cccc(C(=O)N2CCn3cc(C(F)(F)F)nc3C2)c1 [Compound 349, 2-imino-5,5-diphenyl-3-(3-{[2-(trifluoromethyl)-5,6-dihydroimidazo-[1,2-a]pyrazin-7(8H)-yl]carbonyl}-benzyl)imidazolidin-4-one]",84.2
24,"CC(C)CCC1(c2ccc(F)cc2)NC(=N)N(Cc2ccc(C(F)(F)F)c(C(=O)N3CC[C@@]4(c5ccccc5)NOC[C@H]4C3)c2)C1=O (stereo partly drawn) [Compound 163, 5-(4-fluorophenyl)-2-imino-5-(3-methylbutyl)-3-[3-{[(3aS,7aR)-7a-phenylhexahydro-isoxazolo[4,3-c]pyridin-5(3H)-yl]carbonyl}-4-(trifluoromethyl)benzyl] imidazolidin-4-one]",33.3
25,"N=C1NC(c2ccc(F)cc2)(c2ccccn2)C(=O)N1Cc1cccc(C(=O)N2Cc3[nH]nc(C(F)(F)F)c3C2)c1 (stereo not shown) [Compound 248, 5-(4-fluorophenyl)-2-imino-5-pyridin-2-yl-3-(3-{[3-(trifluoromethyl)-4,6-dihydropyrrolo [3,4-c]pyrazol-5(1H)-yl]carbonyl}benzyl) imidazolidin-4-one]",18
